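Test compounds were applied to cells in 96-well plates for 48 hours at 5 doses. GI50 = concentration required for 50% inhibition of growth. TGI marks complete inhibition of growth.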
Assays:
Test in all cases: growth of human tumour cells (NCI), 48 h
786-0 renal = tested on: 786-0 renal
BT-549 breast = tested on: BT-549 breast
HCT-15 colon = tested on: HCT-15 colon
HT29 colon = tested on: HT29 colon
LOX IMVI melanoma = tested on: LOX IMVI melanoma
MCF7 breast = tested on: MCF7 breast
MOLT-4 leukemia = tested on: MOLT-4 leukemia
SK-MEL-5 melanoma = tested on: SK-MEL-5 melanoma
IGROV1 ovarian = tested on: IGROV1 ovarian

Compound	TGI (786-0 renal)	TGI (BT-549 breast)	TGI (HCT-15 colon)	TGI (HT29 colon)	TGI (LOX IMVI melanoma)	TGI (MCF7 breast)	TGI (MOLT-4 leukemia)	TGI (SK-MEL-5 melanoma)	GI50 (HCT-15 colon)	GI50 (HT29 colon)	GI50 (IGROV1 ovarian)	TGI (IGROV1 ovarian)	GI50 (LOX IMVI melanoma)	GI50 (MCF7 breast)	GI50 (MOLT-4 leukemia)	GI50 (SK-MEL-5 melanoma)
CN(CCN)[C@H](CSSC[C@@H](c1ccccc1O)N(C)CCN)c1ccccc1O	32.6 µM	25 µM	18.6 µM	21.3 µM	28.5 µM	> 52.7 µM	23 µM	24.4 µM								
O=C(Nc1cccc(-n2ccc3c(NC(=O)c4ccccc4)ncnc32)c1)Nc1ccc(Cl)c(C(F)(F)F)c1			10.2 µM	7.87 µM	15 µM	6.14 µM	12.7 µM	8.16 µM	2.51 µM	1.87 µM	2.92 µM	17.1 µM	2.82 µM	1.49 µM	1.77 µM	2.2 µM
C[N+]1(C)CCCC(C#N)(c2ccccc2)CC1 (stereo not given)	> 100 µM		> 100 µM	> 100 µM		> 100 µM	> 100 µM	> 100 µM				> 100 µM				
O=C(NNC(=O)c1ccco1)c1ccco1	> 100 µM	> 100 µM	> 100 µM	> 100 µM	> 100 µM	> 100 µM	> 100 µM	> 100 µM				> 100 µM				
Nc1nc(Cl)c(CO)c(NCC2(CO)CCC2)n1	> 100 µM	> 100 µM	> 100 µM	> 100 µM	> 100 µM	> 100 µM	> 100 µM	> 100 µM				> 100 µM				
O=c1cc(-c2cccc(OC(F)(F)F)c2)[nH]c2ccc(N3CCCC3)cc12				0.00166 µM		> 100 µM	0.00157 µM	0.0105 µM						0.0385 µM		
NC(CCC(=O)c1ccccn1)C(=O)O (stereo not given)	> 100 µM	> 100 µM	> 100 µM	> 100 µM	> 100 µM	> 100 µM	> 100 µM	> 100 µM				> 100 µM				
CC(=O)c1csc2c1C(=O)c1ccccc1C2=O	> 22.3 µM	3.01 µM	10.3 µM	4.5 µM	31.3 µM	5.22 µM	> 66.7 µM	0.376 µM				6.42 µM				
CCN(CC)c1c(C(C)(C)C)c(=O)n2ccsc2c1OC(C)=O	34.1 µM	30.3 µM	30.7 µM	28.4 µM	31.4 µM	28.9 µM	> 100 µM	32.2 µM				31.2 µM				
OCCc1ccsc1-c1sc(-c2cc(CCO)c(-c3sc(-c4cc(CCO)c(-c5sccc5CCO)s4)cc3CCO)s2)cc1CCO	2.14 µM	2.21 µM	3.52 µM	3.99 µM	2.47 µM	1.95 µM		3.01 µM				2.6 µM				
CSc1cc(Cl)c(C)cc1S(=O)(=O)NC(=O)NNc1ccc(C)cc1	> 100 µM		> 100 µM	> 100 µM	> 100 µM	> 100 µM	> 100 µM	> 100 µM				> 100 µM				
COc1cc(/C=C(\C)[N+](=O)[O-])cc(OC)c1	8.95 µM	33.6 µM	29.9 µM	38.5 µM	11.9 µM	21.1 µM	6.16 µM	31.7 µM				17.6 µM				
O=C1c2cc3c(cc2NC(c2ccccc2F)C1O)OCO3 (stereo not given)	48.1 µM	> 100 µM	> 100 µM	43.3 µM	> 100 µM	> 100 µM	> 83.9 µM	> 100 µM				> 100 µM				
Cc1ccc(S(=O)(=O)N/N=C2\C=CC3(CC2)C(=O)N(I)c2ccccc23)cc1 (stereo not given)	> 100 µM		> 100 µM	> 100 µM	> 100 µM		> 100 µM	> 100 µM								
COc1ccc(OC)c2c(C(C)=O)cccc12	> 100 µM		> 100 µM			> 100 µM	> 100 µM	> 100 µM				> 100 µM				
O=C(/C=C/c1ccc(OCc2ccccc2)cc1)NCc1ccc(C(=O)NCCc2ccccc2)cc1	> 100 µM	> 100 µM	> 100 µM	> 100 µM	> 100 µM	> 100 µM		> 100 µM				> 100 µM				
CCOC(=O)N1c2ccccc2C(C)=CC(C)C1C (stereo not given)	> 100 µM		> 100 µM	40.3 µM	63.7 µM	> 100 µM	> 100 µM	39.6 µM				> 100 µM				
Cc1ccc(C2=CC(=O)/C(=C\C(=O)c3ccc(Br)cc3)O2)c(C)c1	16 µM	16.2 µM	36.9 µM	17.6 µM	> 21.1 µM	23.8 µM	> 47.9 µM	41.5 µM				40.4 µM				
CCOC(=O)[C@@]12C[C@](/C=C/OC)(O[Si](C)(C)C)[C@@]13c1cc(OC)c(OC)cc1CCN3C(=O)C2=O	> 100 µM	> 100 µM	> 100 µM	> 100 µM	> 100 µM	> 100 µM	> 100 µM	> 100 µM				> 100 µM				
COC(=O)[C@@H]1c2c(oc3cc(CO)cc(O)c3c2=O)C=C[C@H]1O	12 µM	12.4 µM	9.48 µM	14.2 µM	12.4 µM	12 µM	> 100 µM	28.5 µM				26.2 µM				
Cc1cccc2c(=O)c3c(O)cc(O)cc3n(C)c12	> 100 µM	> 100 µM	> 100 µM	> 100 µM	> 100 µM	> 100 µM	> 100 µM	> 100 µM				> 100 µM				
CO[C@@]12C[C@H](CNC(=O)c3ccc[nH]3)O[C@@H]1NC(=O)N2	> 100 µM	> 100 µM	> 100 µM	> 100 µM	> 100 µM	> 100 µM	> 100 µM	> 100 µM				> 100 µM				
CNC(=O)OCc1cnc([N+](=O)[O-])n1C	> 100 µM	> 100 µM	> 100 µM	> 100 µM	> 100 µM	> 100 µM	> 100 µM	> 100 µM				> 100 µM				

Source: PubChem BioAssay (NCI)
